Read-outs that look alike come from different tables or passages of the source.
Experiments:
[1] = LogP by HPLC on reversed phase columns (EEC directive 79/831 Annex V.A8); assay type: physicochemical; settings: method [a]: LC-UV, acidic range, 0.1% formic acid in water and acetonitrile as eluent (linear gradient 10% to 95% acetonitrile); for chromatographic logP: reversed phase HPLC column
Description: [table] If more than one LogP value is available within the same method, all the values are given and separated by “+”. Calibration was done with straight-chain alkan2-ones (with 3 to 16 carbon atoms) with known LogP values (measurement of LogP values using retention times with linear interpolation between successive alkanones). Lambda-max-values were determined using UV-spectra from 200 nm to 400 nm and the peak values of the chromatographic signals.

[2] = test system: Septoria tritici; test: In vivo preventive test on Septoria tritici (leaf spot on wheat); settings: Zymoseptoria tritici, 576 h, read-out: efficacy
Description: Example B: In Vivo Preventive Test on Septoria tritici (Leaf Spot on Wheat)
(§1) The active ingredients are made soluble and homogenized in a mixture of Dimethyl sulfoxide/Acetone/Tween® 80 and then diluted in water to the desired concentration.
The young plants of wheat are treated by spraying the active ingredient prepared as described above. Control plants are treated only with an aqueous solution of Acetone/Dimethyl sulfoxide/Tween® 80.
After 24 hours, the plants are contaminated by spraying the leaves with an aqueous suspension of Septoria tritici spores. The contaminated wheat plants are incubated for 72 hours at 18° C. and at 100% relative humidity and then for 21 days at 20° C. and at 90% relative humidity.
The test is evaluated 24 days after the inoculation. 0% means an efficacy which corresponds to that of the control plants while an efficacy of 100% means that no disease is observed.

[3] = test system: Sphaerotheca fuliginea; test: In vivo preventive test on Sphaerotheca fuliginea (powdery mildew on cucurbits); settings: Podosphaera fuliginea, 360 h, read-out: efficacy
Description: Example C: In Vivo Preventive Test on Sphaerotheca fuliginea (Powdery Mildew on Cucurbits)
as §1
The young plants of gherkin are treated by spraying the active ingredient prepared as described above. Control plants are treated only with an aqueous solution of Acetone/Dimethyl sulfoxide/Tween® 80.
After 24 hours, the plants are contaminated by spraying the leaves with an aqueous suspension of Sphaerotheca fuliginea spores. The contaminated gherkin plants are incubated for 72 hours at 18° C. and at 100% relative humidity and then for 12 days at 20° C. and at 70-80% relative humidity.
The test is evaluated 15 days after the inoculation. 0% means an efficacy which corresponds to that of the control plants while an efficacy of 100% means that no disease is observed.

[4] = 500 ppm of active ingredient, wheat plants, preventive spray, evaluated 24 days after inoculation, 100% = no disease
[5] = 500 ppm of active ingredient, gherkin plants, preventive spray, evaluated 15 days after inoculation, 100% = no disease

Row | LogP [1] | SMILES | also measured
1 | 4.18 ^[a] | CC(C)(C)c1ccc(CCC(O)(Cn2cncc2C#N)C2(Cl)CC2)cc1 (stereo not drawn) [I-01] | –
2 | – | CC(C)(C)C(O)(CCc1ccc(Cl)cc1)Cn1cncc1C#N (stereo not drawn) [I-02, 3-[2-[2-(4-chlorophenyl)ethyl]-2-hydroxy-3,3-dimethyl-butyl]imidazole-4-carbonitrile] | pest or weed control at 500 ppm [2, 4]: 90 to 100%; pest or weed control at 500 ppm [3, 5]: 90 to 100%; chromatographic logP [1]: 3.31
3 | – | N#Cc1cncn1CC(O)(CCc1ccc(C(F)(F)F)cc1)C1(F)CC1 (stereo not drawn) [I-03, 3-[2-(1-fluorocyclopropyl)-2-hydroxy-4-[4-(trifluoromethyl)phenyl]butyl]imidazole-4-carbonitrile] | pest or weed control at 500 ppm [2, 4]: 90 to 100%; pest or weed control at 500 ppm [3, 5]: 90 to 100%; chromatographic logP [1]: 3.15
4 | 2.78 ^[a] | CC(C)(C)C(O)(CCc1ccc(Cl)cc1)Cn1cncc1Cl (stereo not drawn) [I-04] | –
5 | 3.02 ^[a] | CC(C)(C)C(O)(CCc1ccc(Cl)cc1)Cn1cncc1C=O (stereo not drawn) [I-05] | –
6 | – | CC(C)(C)C(O)(CCc1ccc(Cl)cc1)Cn1cncc1F (stereo not drawn) [I-06, 1-(4-chlorophenyl)-3-[(5-fluoroimidazol-1-yl)methyl]-4,4-dimethyl-pentan-3-ol] | pest or weed control at 500 ppm [2, 4]: 80 to 89%; pest or weed control at 500 ppm [3, 5]: 90 to 100%; chromatographic logP [1]: 2.25
7 | 2.88 ^[a] | N#Cc1cncn1CC(O)(CCc1ccccc1)C1(Cl)CC1 (stereo not drawn) [I-07] | –
8 | 3.48 ^[a] | N#Cc1cncn1CC(O)(CCc1ccc(C(F)(F)F)cc1)C1(Cl)CC1 (stereo not drawn) [I-08] | –
9 | 3.78 ^[a] | CC(C)(C)c1ccc(CCC(O)(Cn2cncc2C#N)C2(F)CC2)cc1 (stereo not drawn) [I-09] | –
10 | – | N#Cc1cncn1CC(O)(CCc1ccccc1)C1(F)CC1 (stereo not drawn) [I-10, 3-[2-(1-fluorocyclopropyl)-2-hydroxy-4-phenyl-butyl]imidazole-4-carbonitrile] | pest or weed control at 500 ppm [2, 4]: 90 to 100%; pest or weed control at 500 ppm [3, 5]: 90 to 100%; chromatographic logP [1]: 2.53
11 | 2.75 ^[a] | CC(C)(C)C(O)(CCc1ccc(Cl)cc1)Cn1cncc1Br (stereo not drawn) [I-11] | –
12 | 2.73 ^[a] | OC(CCc1ccc(Cl)cc1)(Cn1cncc1Cl)C1(Cl)CC1 (stereo not drawn) [I-12] | –
13 | – | CC(C)(CC(O)(Cn1cncc1C#N)C1(Cl)CC1)c1ccccc1 (stereo not drawn) [I-13, 1-[2-(1-chlorocyclopropyl)-2-hydroxy-4-methyl-4-phenylpentyl]-1H-imidazole-5-carbonitrile] | pest or weed control at 500 ppm [2]: 90 to 100%; pest or weed control at 500 ppm [3]: 90 to 100%; chromatographic logP [1]: 3.09
14 | 3.29 ^[a] | N#Cc1cncn1CC(O)(CCc1ccc(OC(F)(F)F)cc1)C1(F)CC1 (stereo not drawn) [I-14] | –
15 | 2.69 ^[a] | N#Cc1cncn1CC(O)(CCc1ccc(F)cc1F)C1(F)CC1 (stereo not drawn) [I-15] | –
16 | 3.69 ^[a] | N#Cc1cncn1CC(O)(CCc1ccc(OC(F)(F)F)c(F)c1)C1(Cl)CC1 (stereo not drawn) [I-16] | –
17 | 2.90 ^[a] | Cc1ccc(CCC(O)(Cn2cncc2C#N)C2(F)CC2)cc1 (stereo not drawn) [I-17] | –
18 | – | N#Cc1cncn1CC(O)(CCc1ccc(Cl)cc1)C1(Cl)CC1 (stereo not drawn) [I-18, 3-[2-(1-chlorocyclopropyl)-4-(4-chlorophenyl)-2-hydroxy-butyl]imidazole-4-carbonitrile] | pest or weed control at 500 ppm [2, 4]: 90 to 100%; pest or weed control at 500 ppm [3, 5]: 90 to 100%; chromatographic logP [1]: 3.42
19 | 3.23 ^[a] | Cc1ccc(CCC(O)(Cn2cncc2C#N)C2(Cl)CC2)cc1 (stereo not drawn) [I-19] | –
20 | 2.90 ^[a] | CC(C)(C)C(O)(CCc1ccccc1)Cn1cncc1C#N (stereo not drawn) [I-20] | –
21 | 3.55 ^[a] | CC1(c2ccc(CCC(O)(Cn3cncc3C#N)C3(F)CC3)cc2)CC1 (stereo not drawn) [I-21] | –
22 | 2.98 ^[a] | N#Cc1cncn1CC(O)(CCc1ccc(Cl)cc1)C1(F)CC1 (stereo not drawn) [I-22] | –
23 | 0.53 ^[a] | N#Cc1cncn1CC(O)(CCc1cccnc1)C1(F)CC1 (stereo not drawn) [I-23] | –
24 | 4.03 ^[a] | CC1(c2ccc(CCC(O)(Cn3cncc3C#N)C3(Cl)CC3)cc2)CC1 (stereo not drawn) [I-24] | –
25 | 3.00 ^[a] | N#Cc1cncn1CC(O)(CCc1ccc(Cl)cc1F)C1(F)CC1 (stereo not drawn) [I-25] | –
26 | 2.56 ^[a] | N#Cc1cncn1CC(O)(CCc1ccccc1F)C1(F)CC1 (stereo not drawn) [I-26] | –
27 | 2.03 ^[a] | N#Cc1cncn1CC(O)(CCc1ccc(Cl)nc1)C1(F)CC1 (stereo not drawn) [I-27] | –

Row | LogP [1] | SMILES | also measured
28 | – | N#Cc1cncn1CC(O)(CCc1ccc(Cl)nc1)C1(Cl)CC1 (stereo not drawn) [I-28, 3-[2-(1-chlorocyclopropyl)-4-(6-chloro-3-pyridyl)-2-hydroxy-butyl]imidazole-4-carbonitrile] | pest or weed control at 500 ppm [2, 4]: 90 to 100%; pest or weed control at 500 ppm [3, 5]: 90 to 100%; chromatographic logP [1]: 2.39
29 | 3.22 ^[a] | Cc1ccc(CCC(O)(Cn2cncc2C#N)C(C)(C)C)cc1 (stereo not drawn) [I-29] | –
30 | 2.90 ^[a] | N#Cc1cncn1CC(O)(CCc1ccc(Cl)cc1)C1CC1 (stereo not drawn) [I-30] | –
31 | 2.49 ^[a] | N#Cc1cncn1CC(O)(CCc1ccccc1)C1CC1 (stereo not drawn) [I-31] | –
32 | 3.41 ^[a] | N#Cc1cncn1CC(O)(CCc1ccc(Cl)cc1F)C1(Cl)CC1 (stereo not drawn) [I-32] | –
33 | 2.20 ^[a] | N#Cc1cncn1CC(O)(CCc1ccc(F)nc1)C1(Cl)CC1 (stereo not drawn) [I-33] | –
34 | 1.88 ^[a] | N#Cc1cncn1CC(O)(CCc1ccc(F)nc1)C1(F)CC1 (stereo not drawn) [I-34] | –
35 | 2.95 ^[a] | CC(C)C(O)(CCc1ccc(Cl)cc1)Cn1cncc1C#N (stereo not drawn) [I-35] | –
36 | 2.53 ^[a] | CC(C)C(O)(CCc1ccccc1)Cn1cncc1C#N (stereo not drawn) [I-36] | –
37 | 3.23 ^[a] | N#Cc1cncn1CC(O)(CCc1ccc(Cl)cc1)C1CCC1 (stereo not drawn) [I-37] | –
38 | 2.80 ^[a] | N#Cc1cncn1CC(O)(CCc1ccccc1)C1CCC1 (stereo not drawn) [I-38] | –
39 | 3.46 ^[a] | N#Cc1cncn1CC(O)(CCc1ccccc1)c1ccc(Cl)cc1 (stereo not drawn) [I-39] | –
40 | 3.96 ^[a] | N#Cc1cncn1CC(O)(CCc1ccc(Cl)cc1)c1ccc(Cl)cc1 (stereo not drawn) [I-40] | –
41 | 3.42 ^[a] | CC(C)(C)C(O)(CCc1ccc(C(F)(F)F)cc1)Cn1cncc1C#N (stereo not drawn) [I-41] | –
42 | 2.62 ^[a] | N#Cc1cncn1CC(O)(CCc1ccccc1)CC1CC1 (stereo not drawn) [I-42] | –
43 | 3.02 ^[a] | N#Cc1cncn1CC(O)(CCc1ccc(Cl)cc1)CC1CC1 (stereo not drawn) [I-43] | –
44 | 3.64 ^[a] | N#Cc1cncn1CC(O)(CCc1ccc(Cl)cc1F)c1ccc(Cl)cc1 (stereo not drawn) [I-44] | –
45 | 2.74 ^[a] | N#Cc1cncn1CC(O)(CCc1ccccc1)c1ccccc1 (stereo not drawn) [I-45] | –
46 | – | N#Cc1cncn1CC(O)(CCc1ccc(Cl)cc1)c1ccccc1 (stereo not drawn) [I-46, 3-[4-(4-chlorophenyl)-2-hydroxy-2-phenyl-butyl]imidazole-4-carbonitrile] | pest or weed control at 500 ppm [2, 4]: 90 to 100%; pest or weed control at 500 ppm [3, 5]: 90 to 100%; chromatographic logP [1]: 3.13
47 | 2.80 ^[a] | CC1(C(O)(CCc2ccccc2)Cn2cncc2C#N)CC1 (stereo not drawn) [I-47] | –
48 | 3.22 ^[a] | CC1(C(O)(CCc2ccc(Cl)cc2)Cn2cncc2C#N)CC1 (stereo not drawn) [I-48] | –
49 | 3.37 ^[a] | N#Cc1cncn1CC(O)(CCc1ccccc1)c1ccc(Cl)cc1F (stereo not drawn) [I-49] | –
50 | 3.75 ^[a] | N#Cc1cncn1CC(O)(CCc1ccc(Cl)cc1F)c1ccc(Cl)cc1F (stereo not drawn) [I-50] | –
51 | 3.79 ^[a] | N#Cc1cncn1CC(O)(CCc1ccc(Cl)cc1)c1ccc(Cl)cc1F (stereo not drawn) [I-51] | –
52 | 3.23 ^[a] | N#Cc1cncn1CC(O)(CCc1ccc(Cl)cc1F)c1ccccc1 (stereo not drawn) [I-52] | –
53 | – | N#Cc1cncn1CC(O)(CCC1Cc2ccccc2O1)C1(F)CC1 (stereo not drawn) [I-53, 1-[4-(2,3-dihydro-1-benzofuran-2-yl)-2-(1-fluorocyclopropyl)-2-hydroxybutyl]-1H-imidazole-5-carbonitrile] | chromatographic logP [1]: 2.61
